Assay results from the supplement of paper PMC10307832.

Columns and labels:
Assay in all cases: relative viability (nuclei count vs DMSO), 5 days (fraction); higher = more cells survive
[1] = compound: CN(C/C=C/C1=CC=C(C=C1)Cl)CC2=CC=CC=C2N(CCO)S(=O)(=O)C3=CC=C(C=C3)OC [KN-93]
Summary of the method: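 Five library-drug doses spaced by √10 were pinned onto vehicle-anchored 1536-well plates of lung cancer cell lines that had been kept overnight at 37 °C. Cells went 5 days without medium change, then were fixed, permeabilised and Hoechst-stained together, imaged at 4× and counted by MetaXpress. Viability is the ratio of treated-well to vehicle-well nuclei, taken as a median over plates. Plates required control CV below 25% and at least one doubling.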

[2] = compound: CN(C/C=C/C1=CC=C(C=C1)Cl)CC2=CC=CC=C2N(CCO)S(=O)(=O)C3=CC=C(C=C3)OC [KN-93] + CCNC(=O)c1noc(-c2cc(C(C)C)c(O)cc2O)c1-c1ccc(CN2CCOCC2)cc1 [Luminespib] (partner 0.01 µM)
Summary of the method: (§1)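 A single step with final 0.05% Triton X-100, 1% formaldehyde and 1 ug/ml Hoechst fixed the cells and stained nuclei 5 days after treatment. Lung cancer cell lines in 1536-well plates had been treated by pin tool the day after seeding with one drug alone or a fixed anchor-drug dose plus five library-drug doses (not always all listed) in √10 steps, and nuclei were counted on 4× images. Relative viability is the ratio of nuclei in treated wells to nuclei in vehicle wells, taken as the median of duplicate plates.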

[3] = compound: CN(C/C=C/C1=CC=C(C=C1)Cl)CC2=CC=CC=C2N(CCO)S(=O)(=O)C3=CC=C(C=C3)OC [KN-93] + COc1cc2c(Oc3ccc(NC(=O)C4(C(=O)Nc5ccc(F)cc5)CC4)cc3F)ccnc2cc1OCCCN1CCOCC1 [Foretinib] (partner 0.25 µM)
Summary of the method: as §1

[4] = compound: CN(C/C=C/C1=CC=C(C=C1)Cl)CC2=CC=CC=C2N(CCO)S(=O)(=O)C3=CC=C(C=C3)OC [KN-93] + COc1cccc2cc(-c3nc([C@H]4CC[C@H](C(=O)O)CC4)n4ncnc(N)c34)[nH]c12 [OSI-027] (partner 0.5 µM)
Summary of the method: as §1

[5] = compound: CN(C/C=C/C1=CC=C(C=C1)Cl)CC2=CC=CC=C2N(CCO)S(=O)(=O)C3=CC=C(C=C3)OC [KN-93] + Cc1cc(Nc2cc(N3CCN(C)CC3)nc(Sc3ccc(NC(=O)C4CC4)cc3)n2)n[nH]1 [Tozasertib] (partner 0.1 µM)
Summary of the method: as §1

[6] = compound: CN(C/C=C/C1=CC=C(C=C1)Cl)CC2=CC=CC=C2N(CCO)S(=O)(=O)C3=CC=C(C=C3)OC [KN-93] + Cc1nc(Nc2ncc(C(=O)Nc3c(C)cccc3Cl)s2)cc(N2CCN(CCO)CC2)n1 [Dasatinib] (partner 0.075 µM)
Summary of the method: as §1

[7] = compound: CN(C/C=C/C1=CC=C(C=C1)Cl)CC2=CC=CC=C2N(CCO)S(=O)(=O)C3=CC=C(C=C3)OC [KN-93] + N=C(N)NC(=N)NCCc1ccccc1 [Phenformin] (partner 250 µM)
Summary of the method: as §1

[8] = compound: CN(C/C=C/C1=CC=C(C=C1)Cl)CC2=CC=CC=C2N(CCO)S(=O)(=O)C3=CC=C(C=C3)OC [KN-93] + CC(=O)Nc1cccc(-n2c(=O)n(C3CC3)c(=O)c3c(Nc4ccc(I)cc4F)n(C)c(=O)c(C)c32)c1 [Trametinib] (partner 0.02 µM)
Summary of the method: as §1

[9] = compound: CN(C/C=C/C1=CC=C(C=C1)Cl)CC2=CC=CC=C2N(CCO)S(=O)(=O)C3=CC=C(C=C3)OC [KN-93] + CC(=O)c1c(C)c2cnc(Nc3ccc(N4CCNCC4)cn3)nc2n(C2CCCC2)c1=O [Palbociclib] (partner 0.5 µM)
Summary of the method: as §1

[10] = compound: CN(C/C=C/C1=CC=C(C=C1)Cl)CC2=CC=CC=C2N(CCO)S(=O)(=O)C3=CC=C(C=C3)OC [KN-93] + NC(=O)Nc1cc(-c2cccc(F)c2)sc1C(=O)N[C@H]1CCCNC1 [AZD7762] (partner 0.2 µM)
Summary of the method: as §1

[11] = compound: CN(C/C=C/C1=CC=C(C=C1)Cl)CC2=CC=CC=C2N(CCO)S(=O)(=O)C3=CC=C(C=C3)OC [KN-93] + Nc1nc2[nH]cc(CCc3ccc(C(=O)N[C@@H](CCC(=O)O)C(=O)O)cc3)c2c(=O)[nH]1 [Pemetrexed] (partner 0.2 µM)
Summary of the method: as §1

[12] = compound: CN(C/C=C/C1=CC=C(C=C1)Cl)CC2=CC=CC=C2N(CCO)S(=O)(=O)C3=CC=C(C=C3)OC [KN-93] + Nc1ncn([C@H]2C[C@H](O)[C@@H](CO)O2)c(=O)n1 [Decitabine] (partner 2 µM)
Summary of the method: as §1

[13] = compound: CN(C/C=C/C1=CC=C(C=C1)Cl)CC2=CC=CC=C2N(CCO)S(=O)(=O)C3=CC=C(C=C3)OC [KN-93] + O=C(CCCCCCC(=O)Nc1ccccc1)NO [Vorinostat] (partner 1 µM)
Summary of the method: as §1

[14] = compound: CN(C/C=C/C1=CC=C(C=C1)Cl)CC2=CC=CC=C2N(CCO)S(=O)(=O)C3=CC=C(C=C3)OC [KN-93] + O=C(c1cc(Cc2n[nH]c(=O)c3ccccc23)ccc1F)N1CCN(C(=O)C2CC2)CC1 [Olaparib] (partner 8 µM)
Summary of the method: as §1

## NCI-H1623
[1]; 0.08 µM
  relative viability: 0.95
[1]; 0.253 µM
  relative viability: 0.984
[1]; 2.53 µM
  relative viability: 0.956
[1]; 8 µM
  relative viability: 0.958
[2]; first compound 0.08 µM
  relative viability: 0.44
[2]; first compound 0.253 µM
  relative viability: 0.414
[2]; first compound 2.53 µM
  relative viability: 0.654
[2]; first compound 8 µM
  relative viability: 0.457
[3]; first compound 0.08 µM
  relative viability: 0.861
[3]; first compound 0.253 µM
  relative viability: 0.796
[3]; first compound 2.53 µM
  relative viability: 0.994
[3]; first compound 8 µM
  relative viability: 0.726
[4]; first compound 0.08 µM
  relative viability: 0.418
[4]; first compound 0.253 µM
  relative viability: 0.36
[4]; first compound 2.53 µM
  relative viability: 0.393
[4]; first compound 8 µM
  relative viability: 0.416
[5]; first compound 0.08 µM
  relative viability: 0.445
[5]; first compound 0.253 µM
  relative viability: 0.41
[5]; first compound 2.53 µM
  relative viability: 0.41
[5]; first compound 8 µM
  relative viability: 0.439
[6]; first compound 0.08 µM
  relative viability: 0.647
[6]; first compound 0.253 µM
  relative viability: 0.525
[6]; first compound 2.53 µM
  relative viability: 0.536
[6]; first compound 8 µM
  relative viability: 0.393
[7]; first compound 0.08 µM
  relative viability: 0.61
[7]; first compound 0.253 µM
  relative viability: 0.592
[7]; first compound 2.53 µM
  relative viability: 0.672
[7]; first compound 8 µM
  relative viability: 0.453

## NCI-H1648
[1]; 0.08 µM
  relative viability: 0.704
[1]; 0.253 µM
  relative viability: 0.792
[1]; 2.53 µM
  relative viability: 0.968
[1]; 8 µM
  relative viability: 0.526
[8]; first compound 0.08 µM
  relative viability: 0.403
[8]; first compound 0.253 µM
  relative viability: 0.445
[8]; first compound 2.53 µM
  relative viability: 0.381
[8]; first compound 8 µM
  relative viability: 0.407
[9]; first compound 0.08 µM
  relative viability: 0.251
[9]; first compound 0.253 µM
  relative viability: 0.259
[9]; first compound 2.53 µM
  relative viability: 0.295
[9]; first compound 8 µM
  relative viability: 0.291
[4]; first compound 0.08 µM
  relative viability: 0.263
[4]; first compound 0.253 µM
  relative viability: 0.254
[4]; first compound 2.53 µM
  relative viability: 0.229
[4]; first compound 8 µM
  relative viability: 0.202
[5]; first compound 0.08 µM
  relative viability: 0.426
[5]; first compound 0.253 µM
  relative viability: 0.378
[5]; first compound 2.53 µM
  relative viability: 0.389
[5]; first compound 8 µM
  relative viability: 0.331
[10]; first compound 0.08 µM
  relative viability: 0.647
[10]; first compound 0.253 µM
  relative viability: 0.727
[10]; first compound 2.53 µM
  relative viability: 0.82
[10]; first compound 8 µM
  relative viability: 0.663
[11]; first compound 0.08 µM
  relative viability: 0.717
[11]; first compound 0.253 µM
  relative viability: 0.874
[11]; first compound 2.53 µM
  relative viability: 0.788
[11]; first compound 8 µM
  relative viability: 0.716
[12]; first compound 0.08 µM
  relative viability: 0.459
[12]; first compound 0.253 µM
  relative viability: 0.45
[12]; first compound 2.53 µM
  relative viability: 0.557
[12]; first compound 8 µM
  relative viability: 0.34
[13]; first compound 0.08 µM
  relative viability: 0.485
[13]; first compound 0.253 µM
  relative viability: 0.423
[13]; first compound 2.53 µM
  relative viability: 0.322
[13]; first compound 8 µM
  relative viability: 0.807
[14]; first compound 0.08 µM
  relative viability: 0.56
[14]; first compound 0.253 µM
  relative viability: 0.724
[14]; first compound 2.53 µM
  relative viability: 0.568
[14]; first compound 8 µM
  relative viability: 0.711
